In paper PMC12655351, “Synthesis and Anticancer Activity Evaluation of New 5-((5-Nitrofuran-2-yl)allylidene)-2-thioxo-4-thiazolidinones” (Pharmaceuticals, 2025):

What was measured:
Leukemia = Leukemia subpanel
[1] = system: panel of 60 cancer cell lines; settings: for MG_MID TGI: full panel (last line of Table S2)
NCI-H23 = assay: cells; settings: Homo sapiens, NCI-H23, 48 h; for CC50: read-out: LC50, NCI-H23, 48 h
Melanoma = Melanoma subpanel
SN12C [2] = settings: SN12C, 48 h
CNS cancer [3] = settings: CNS cancer subpanel
SF-295 = assay: NCI-60 SRB screen; settings: SF-295, 48 h; for GI50 / CC50: Homo sapiens; for CC50: read-out: LC50, SF-295, 48 h
HT29 = settings: HT29, 48 h
SR [4] = settings: 48 h
[5] = system: panel of 60 cancer cell lines; assay: cells; settings: Homo sapiens, read-out: MG_MID GI50
OVCAR-3 [6] = assay: cells; settings: Homo sapiens, OVCAR-3, 48 h
Renal Cancer = assay: cells; settings: Homo sapiens; for GI50: read-out: MG_MID GI50; for CC50: read-out: MG_MID LC50
SN12C [7] = assay: cells; settings: Homo sapiens, 48 h; for CC50: read-out: LC50, SN12C, 48 h
UACC-257 = assay: cells; settings: Homo sapiens, UACC-257, 48 h; for CC50: read-out: LC50, UACC-257, 48 h
CNS cancer [8] = assay: cells; settings: Homo sapiens; for GI50: read-out: MG_MID GI50; for CC50: read-out: MG_MID LC50
HCT-15 = assay: NCI-60 SRB screen; settings: HCT-15, 48 h; for GI50 / CC50: Homo sapiens; for CC50: read-out: LC50, HCT-15, 48 h
A498 [9] = assay: cells; settings: Homo sapiens, A498, 48 h
HCT-116 = settings: HCT-116, 48 h
Prostate Cancer = assay: cells; settings: Homo sapiens, read-out: MG_MID GI50
LOX IMVI = assay: cells; settings: Homo sapiens, 48 h; for CC50: read-out: LC50, LOX IMVI, 48 h
MDA-MB-468 = assay: NCI-60 SRB screen; settings: MDA-MB-468, 48 h; for GI50 / CC50: Homo sapiens; for CC50: read-out: LC50, MDA-MB-468, 48 h
MCF7 = assay: NCI-60 SRB screen; settings: MCF7, 48 h; for GI50: Homo sapiens
HOP-62 = assay: NCI-60 SRB screen; settings: HOP-62, 48 h; for GI50: Homo sapiens
MOLT-4 = settings: MOLT-4, 48 h
KM12 = assay: NCI-60 SRB screen; settings: KM12, 48 h; for GI50: Homo sapiens
786-0 = assay: cells; settings: Homo sapiens, 786-0, 48 h
SR [10] = assay: cells; settings: Homo sapiens, 48 h; for CC50: read-out: LC50
U251 = assay: NCI-60 SRB screen; settings: for GI50 / CC50: Homo sapiens, U-251, 48 h; for GI50 / TGI: U251, 48 h; for CC50: read-out: LC50, U251, 48 h
NCI/ADR-RES = assay: cells; settings: Homo sapiens, 48 h; for CC50: read-out: LC50, NCI/ADR-RES, 48 h
TK-10 = settings: TK-10, 48 h
SW-620 = assay: NCI-60 SRB screen; settings: SW-620, 48 h; for GI50: Homo sapiens
OVCAR-3 [11] = settings: OVCAR-3, 48 h
SK-MEL-28 = assay: cells; settings: Homo sapiens, SK-MEL-28, 48 h; for CC50: read-out: LC50, SK-MEL-28, 48 h
A549/ATCC = assay: NCI-60 SRB screen; settings: for TGI: 48 h; for GI50: Homo sapiens, A549, 48 h
A498 [12] = settings: A498, 48 h
EKVX = assay: NCI-60 SRB screen; settings: 48 h; for GI50 / CC50: Homo sapiens; for CC50: read-out: LC50, EKVX, 48 h
Breast cancer = Breast cancer subpanel
IGROV1 = assay: NCI-60 SRB screen; settings: for GI50 / CC50: Homo sapiens, IGROV-1, 48 h; for GI50 / TGI: IGROV1, 48 h; for CC50: read-out: LC50, IGROV1, 48 h
K-562 = assay: cells; settings: Homo sapiens, K562, 48 h; for GI50: K-562, 48 h; for CC50: read-out: LC50

## O=C(O)C(c1ccccc1)N1C(=O)/C(=C/C=C/c2ccc([N+](=O)[O-])o2)SC1=S (centres unmarked) [9b, 2-((Z)-5-((E)-3-(5-Nitrofuran-2-yl)allylidene)-4-oxo-2-thioxothiazolidin-3-yl)-2-phenylacetic acid]
Leukemia
  MG_MID TGI: 24.2 µM
[1]; 10 μM, 48 h
  Positive cytostatic effect (ratio of cell lines with GP from 0 to 50 to total number): 28/55
[1]; 10 μM, 48 h, one dose
  Mean growth: 26.29%
  Range of growth: -88.21 to 175.37%
[1]
  MG_MID TGI: 24.1 µM
NCI-H23
  GI50: 14.4 µM
  CC50: 66.9 µM
Melanoma
  MG_MID TGI: 20.0 µM
SN12C [2]
  TGI: 18.3 µM
CNS cancer [3]
  MG_MID TGI: 21.7 µM
SF-295
  GI50: 17.4 µM
  CC50: 58.4 µM
  TGI: 31.9 µM
HT29
  TGI: 22.4 µM
SR [4]
  TGI: 18.0 µM
[5]
  GI50: 9.03 µM
OVCAR-3 [6]
  GI50: 9.26 µM
Renal Cancer
  GI50: 9.53 µM
  CC50: 50.7 µM
SN12C [7]
  GI50: 5.39 µM
  CC50: 45 µM
UACC-257
  GI50: 13.2 µM
  CC50: 56.1 µM
CNS cancer [8]
  GI50: 9.99 µM
  CC50: 48.4 µM
HCT-15
  TGI: 22.9 µM
  GI50: 7.73 µM
  CC50: 59 µM
A498 [9]
  GI50: 20.8 µM
HCT-116
  TGI: 8.14 µM
Prostate Cancer
  GI50: 12.5 µM
LOX IMVI
  GI50: 10.8 µM
  CC50: 62.3 µM
MDA-MB-468
  GI50: 2.74 µM
  CC50: 45.6 µM
  TGI: 10.4 µM
MCF7
  GI50: 3.67 µM
  TGI: 16.5 µM
HOP-62
  TGI: 44.5 µM
  GI50: 13.1 µM
MOLT-4
  TGI: 39.9 µM
KM12
  GI50: 6.66 µM
  TGI: 20.6 µM
786-0
  GI50: 3.67 µM
SR [10]
  GI50: 3.15 µM
  CC50: > 100 µM
U251
  GI50: 4.11 µM
  CC50: 49.8 µM
  TGI: 16.5 µM
NCI/ADR-RES
  GI50: 13.5 µM
  CC50: 84.9 µM
TK-10
  TGI: 30.0 µM
SW-620
  GI50: 2.94 µM
  TGI: 9.66 µM
OVCAR-3 [11]
  TGI: 21.4 µM
SK-MEL-28
  GI50: 10.7 µM
  CC50: 51.1 µM
A549/ATCC
  TGI: 47.0 µM
  GI50: 16.8 µM
A498 [12]
  TGI: 36.5 µM
EKVX
  TGI: 28.1 µM
  GI50: 14.3 µM
  CC50: 55.1 µM
Breast cancer
  MG_MID TGI: 22.2 µM
IGROV1
  GI50: 14.3 µM
  CC50: 66.6 µM
  TGI: 30.8 µM
K-562
  GI50: 3.45 µM
  CC50: > 100 µM

## CCCCC(C(=O)O)N1C(=O)/C(=C/C=C/c2ccc([N+](=O)[O-])o2)SC1=S (centres unmarked) [6b, 2-((Z)-5-((E)-3-(5-nitrofuran-2-yl)allylidene)-4-oxo-2-thioxothiazolidin-3-yl)hexanoic acid]
Leukemia
  MG_MID TGI: 9.84 µM
[1]; 10 μM, 48 h
  Positive cytostatic effect (ratio of cell lines with GP from 0 to 50 to total number): 6/55
[1]; 10 μM, 48 h, one dose
  Range of growth: -99.30 to 46.65%
[1]
  MG_MID TGI: 6.27 µM
NCI-H23
  GI50: 1.85 µM
  CC50: 6.64 µM
Melanoma
  MG_MID TGI: 3.59 µM
SN12C [2]
  TGI: 4.00 µM
CNS cancer [3]
  MG_MID TGI: 4.58 µM
SF-295
  GI50: 2.23 µM
  CC50: 13.5 µM
  TGI: 4.99 µM
HT29
  TGI: 3.71 µM
SR [4]
  TGI: 8.66 µM
[5]
  GI50: 2.3 µM
OVCAR-3 [6]
  GI50: 2.23 µM
Renal Cancer
  GI50: 2.24 µM
  CC50: 17.7 µM
SN12C [7]
  GI50: 1.75 µM
  CC50: 9.18 µM
UACC-257
  GI50: 1.93 µM
  CC50: 9.62 µM
CNS cancer [8]
  GI50: 2.01 µM
  CC50: 12 µM
HCT-15
  TGI: 3.58 µM
  GI50: 1.71 µM
  CC50: 7.47 µM
A498 [9]
  GI50: 3.03 µM
HCT-116
  TGI: 4.05 µM
Prostate Cancer
  GI50: 3.29 µM
LOX IMVI
  GI50: 1.76 µM
  CC50: 6.37 µM
MDA-MB-468
  GI50: 1.63 µM
  CC50: 6.09 µM
  TGI: 3.15 µM
MCF7
  GI50: 1.64 µM
  TGI: 4.11 µM
HOP-62
  TGI: 5.20 µM
  GI50: 2.25 µM
MOLT-4
  TGI: 13.5 µM
KM12
  GI50: 1.63 µM
  TGI: 3.24 µM
786-0
  GI50: 3.11 µM
SR [10]
  GI50: 1.98 µM
  CC50: > 100 µM
U251
  GI50: 1.91 µM
  CC50: 11 µM
  TGI: 4.42 µM
NCI/ADR-RES
  GI50: 2.24 µM
  CC50: 29.3 µM
TK-10
  TGI: 8.15 µM
SW-620
  GI50: 1.8 µM
  TGI: 3.38 µM
OVCAR-3 [11]
  TGI: 5.33 µM
SK-MEL-28
  GI50: 1.91 µM
  CC50: 7.29 µM
A549/ATCC
  TGI: 5.86 µM
  GI50: 2.33 µM
A498 [12]
  TGI: 8.28 µM
EKVX
  TGI: 5.74 µM
  GI50: 2.26 µM
  CC50: 19.7 µM
Breast cancer
  MG_MID TGI: 7.71 µM
IGROV1
  GI50: 2.16 µM
  CC50: 18 µM
  TGI: 4.86 µM
K-562
  GI50: 2.6 µM
  CC50: > 100 µM
